In patent US20230303575A1, “FGFR AND MUTATION INHIBITOR THEREOF, PREPARATION METHOD THEREFOR AND USE THEREOF” (Abbisko Therapeutics Co., Ltd., priority 2020, published 2023):

Key:
Type in all cases: cell-based
FGFR2 V564F = target: T1, FGFR2 V564F (Homo sapiens, UniProt P21802, V564F); experiment: Cell proliferation assay for Tel-FGFR2 V564F in BaF3; conditions: BaF3 cells expressing FGFR2 V564F fusion, 48 hrs, CellTiter Glo
T1 construct: P41212 (Transcription factor ETV6)
Procedure: (§1) By transfection, cell strains of the intracellular kinase domain fusion protein of TEL-FGFR2 WT or the intracellular domain fusion proteins containing FGFR2 V564, V564F, V564L, N549K and K659M mutations were stably expressed in Baf cells. On day 1, the cell suspension was plated into a 96-well plate containing growth medium (DMEM containing 1% Glutamax, 10% FBS and 1% Pen/Strep) at 2000-4000 cells/90 μL/per well, and then the mixture was incubated overnight at 37° C. and 5% CO2. On day 2, 10 μL of growth medium containing a 10-fold stock solution of test compound was added to the cell culture (9 dose points, 3× serial dilution, starting from 1 μM, finally 0.3% DMSO). After incubation at 37° C. and 5% CO2 for 48 hrs, 50 μL of CellTiter Glo (CTG) reagent was added to the cell-containing 96-well plate on day 3, and the plate was then incubated at room temperature for 10 min. Then relative light units (RLUs) were measured on a microplate reader with a luminescence detection module. RLU values were normalized to % survival, and concentration-response curves were plotted using Prism to calculate IC50 (nM).

FGFR2 V564L = target: T2, FGFR2 V564L (Homo sapiens, UniProt P21802, V564L); experiment: Cell proliferation assay for Tel-FGFR2 V564L in BaF3; conditions: BaF3 cells expressing FGFR2 V564L fusion, 48 hrs, CellTiter Glo
T2 construct: P41212 (Transcription factor ETV6)
T2 sequence (P21802 481-770 V564L limits assumed): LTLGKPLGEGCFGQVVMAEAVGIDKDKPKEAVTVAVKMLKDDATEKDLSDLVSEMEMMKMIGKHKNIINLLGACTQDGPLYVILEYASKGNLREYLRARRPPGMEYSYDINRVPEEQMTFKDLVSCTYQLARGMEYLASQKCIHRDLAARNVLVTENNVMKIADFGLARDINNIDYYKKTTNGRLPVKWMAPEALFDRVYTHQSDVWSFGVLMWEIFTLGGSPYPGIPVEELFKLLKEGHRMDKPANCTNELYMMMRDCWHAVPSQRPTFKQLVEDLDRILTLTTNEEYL
Procedure: as §1

FGFR2 V564I = target: T3, FGFR2 V564I (Homo sapiens, UniProt P21802, V564I); experiment: Cell proliferation assay for Tel-FGFR2 V564I in BaF3; conditions: BaF3 cells expressing FGFR2 V564I fusion, 48 hrs, CellTiter Glo
T3 construct: P41212 (Transcription factor ETV6)
T3 sequence (P21802 481-770 V564I limits assumed): as the sequence (P21802 481-770 V564L limits assumed) above, with L84I counted along it
Procedure: as §1

FGFR2 N549K = target: T4, FGFR2 N549K (Homo sapiens, UniProt P21802, N549K); experiment: Cell proliferation assay for Tel-FGFR2 N549K in BaF3; conditions: BaF3 cells expressing FGFR2 N549K fusion, 48 hrs, CellTiter Glo
T4 construct: P41212 (Transcription factor ETV6)
T4 sequence (P21802 481-770 N549K limits assumed): as the sequence (P21802 481-770 V564L limits assumed) above, with N69K, L84V counted along it
Procedure: as §1

FGFR2 K659M = target: T5, FGFR2 K659M (Homo sapiens, UniProt P21802, K659M); experiment: Cell proliferation assay for Tel-FGFR2 K659M in BaF3; conditions: BaF3 cells expressing FGFR2 K659M fusion, 48 hrs, CellTiter Glo
T5 construct: P41212 (Transcription factor ETV6)
T5 sequence (P21802 481-770 K659M limits assumed): as the sequence (P21802 481-770 V564L limits assumed) above, with L84V, K179M counted along it
Procedure: as §1

FGFR3 V555M = target: T6, FGFR3 V555M (Homo sapiens, UniProt P22607, V555M); experiment: Cell proliferation assay for FGFR3 V555M in BaF3; conditions: BaF3 cells expressing FGFR3 V555M fusion, 48 hrs, CellTiter Glo
T6 construct: P41212 (Transcription factor ETV6)
T6 sequence (P22607 472-761 V555M limits assumed): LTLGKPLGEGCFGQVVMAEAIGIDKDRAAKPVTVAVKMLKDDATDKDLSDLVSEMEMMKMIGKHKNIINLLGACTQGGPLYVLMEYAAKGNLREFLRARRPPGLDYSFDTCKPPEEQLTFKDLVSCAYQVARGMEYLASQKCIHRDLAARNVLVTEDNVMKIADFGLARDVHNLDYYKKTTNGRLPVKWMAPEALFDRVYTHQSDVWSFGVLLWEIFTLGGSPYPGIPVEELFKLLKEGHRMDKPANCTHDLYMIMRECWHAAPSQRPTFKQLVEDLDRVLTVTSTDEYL
Procedure: (§2) For the compounds of the Examples of the present invention, cell strains of TEL-FGFR3 WT intracellular kinase domain fusion protein or intracellular domain fusion protein containing FGFR3 V555M or FGFR3 N540K mutation were stably expressed in Baf cells by transfection and were used to determine the cell proliferation effect of BaF3-Tel-FGFR3 WT. FGFR3 V555M or FGFR3 N540K. The specific test process was as follows: • 1) The cell suspension was plated into a 96-well plate containing growth medium (DMEM containing 1% Glutamax, 10% FBS and 1% Pen/Strep) at 2000-4000 cells/90 μL/per well, and then the mixture was incubated overnight at 37° C. and 5% CO2. • 2) 10 μL of growth medium containing a 10-fold stock solution of test compound was added to the cell culture (9 dose points, 3× serial dilution, starting from 1 μM, finally 0.3% DMSO). • 3) The mixture was incubated at 37° C. and 5% CO2 for 48 hrs. • 4) 50 μL of CellTiter Glo (CTG) reagent was added to the cell-containing 96-well plate, and the plate was then incubated at room temperature for 10 min. • 5) Relative light units (RLUs) were measured on a microplate reader with a luminescence detection module. RLU values were normalized to % survival, and concentration-response curves were plotted using Prism to calculate IC50 (nM).

FGFR3 N540K = target: T7, FGFR3 N540K (Homo sapiens, UniProt P22607, N540K); experiment: Cell proliferation assay for FGFR3 N540K in BaF3; conditions: BaF3 cells expressing FGFR3 N540K fusion, 48 hrs, CellTiter Glo
T7 construct: P41212 (Transcription factor ETV6)
T7 sequence (P22607 472-761 N540K limits assumed): as the sequence (P22607 472-761 V555M limits assumed) above, with N69K, M84V counted along it
Procedure: as §2

T1 sequence (P21802 481-770 V564F limits assumed): as the sequence (P21802 481-770 V564L limits assumed) above, with L84F counted along it

| Compound | IC50 (FGFR2 V564F) [nM] | IC50 (FGFR2 V564L) [nM] | IC50 (FGFR2 V564I) [nM] | IC50 (FGFR2 N549K) [nM] | IC50 (FGFR2 K659M) [nM] | IC50 (FGFR3 V555M) [nM] | IC50 (FGFR3 N540K) [nM] |
| --- | --- | --- | --- | --- | --- | --- | --- |
| C=CC(=O)N1CC[C@H](n2cc(C#Cc3ccc4oc(C5CC5)nc4c3)c3c(N)ncnc32)C1 [Example 1, (S)-1-(3-(4-amino-5-((2-cyclopropylbenzo[d]oxazol-5-yl)ethynyl)-7H-pyrrolo[2,3-d]pyrimidin-7-yl)pyrrolidin-1-yl)prop-2-en-1-one] | 0.5 to 5 | 0.5 to 5 | ≤ 0.5 | 0.5 to 5 | 0.5 to 5 | 0.5 to 5 | 0.5 to 5 |
| C=CC(=O)N1CC[C@H](n2nc(C#Cc3ccc4oc(C5CC5)nc4c3)c3c(N)ncnc32)C1 [Example 20, (S)-1-(3-(4-amino-3-((2-cyclopropylbenzo[d]oxazol-5-yl)ethynyl)-1H-pyrazolo [3,4-d]pyrimidin-1-yl)pyrrolidin-1-yl)prop-2-en-1-one] | 0.5 to 5 | 0.5 to 5 | ≤ 0.5 | 0.5 to 5 | 5 to 50 | 0.5 to 5 | 0.5 to 5 |
| C=CC(=O)N1CC[C@H](n2nc(C#Cc3c(F)cc4sc(C5CC5)nc4c3F)c3c(N)ncnc32)C1 [Example 62, (S)-1-(3-(4-amino-3-((2-cyclopropyl-4,6-difluoro-benzo[d]thiazol-5-yl)ethynyl)-1H-pyrazolo[3,4-d]pyrimidin-1-yl)pyrrolidin-1-yl) prop-2-en-1-one] | ≤ 0.5 | 0.5 to 5 | ≤ 0.5 | 0.5 to 5 | 5 to 50 | 0.5 to 5 | 0.5 to 5 |
| C=CC(=O)N1CC[C@H](n2nc(C#Cc3c(F)cc4oc(NC)nc4c3F)c3c(N)ncnc32)C1 [Example 67, (S)-1-(3-(4-amino-3-((4,6-difluoro-2-(methylamino)benzo[d]oxazol-5-yl)ethynyl)-1H-pyrazolo[3,4-d]pyrimidin-1-yl)pyrrolidin-1-yl)prop-2-en-1-one] | 0.5 to 5 |  |  |  |  | 0.5 to 5 | 5 to 50 |
| C=CC(=O)N1C[C@@H](n2nc(C#Cc3c(F)cc4sc(C5CC5)nc4c3F)c3c(N)ncnc32)C[C@@H]1COC [Example 68, 1-((2R,4S)-4-(4-amino-3-((2-cyclopropyl-4,6-difluoro-benzo[d]thiazol-5-yl)ethynyl)-1H-pyrazolo[3,4-d]pyrimidin-1-yl)-2-(methoxy-methyl)pyrrolidin-1-yl) prop-2-en-1-one] | ≤ 0.5 | ≤ 0.5 |  | ≤ 0.5 | 0.5 to 5 | ≤ 0.5 | 0.5 to 5 |
| C=CC(=O)N1CC[C@H](n2nc(C#Cc3c(F)cc4oc(N5CCC5)nc4c3F)c3c(N)ncnc32)C1 [Example 74, (S)-1-(3-(4-amino-3-((2-(azetidin-1-yl)-4.6-difluoro-benzo[d]oxazol-5-yl)ethynyl)-1H-pyrazolo[3,4-d]pyrimidin-1-yl)pyrrolidin-1-yl)prop-2-en-1-one] | ≤ 0.5 | 0.5 to 5 | ≤ 0.5 | 0.5 to 5 | 5 to 50 | ≤ 0.5 | 0.5 to 5 |
| CN(C)C/C=C/C(=O)N1CC(n2nc(C#Cc3c(F)cc4oc(N5CCC5)nc4c3F)c3c(N)ncnc32)C1 [Example 77, (E)-1-(3-(4-amino-3-((2-(azetidin-1-yl)-4,6-difluorobenzo[d]oxazol-5-yl)ethynyl)-1H-pyrazolo[3,4-d]pyrimidin-1-yl)azetidin-1-yl)-4-(dimethylamino)but-2-en-1-one] | ≤ 0.5 | 0.5 to 5 |  | 0.5 to 5 | 5 to 50 | 0.5 to 5 | 5 to 50 |
| CN(C)C/C=C/C(=O)N1CC(n2nc(C#Cc3c(F)cc4sc(C5CC5)nc4c3F)c3c(N)ncnc32)C1 [Example 78, (E)-1-(3-(4-amino-3-((2-cyclopropyl-4,6-difluoro-benzo[d]thiazol-5-yl)ethynyl)-1H-pyrazolo[3,4-d]pyrimidin-1-yl)azetidin-1-yl)-4-(dimethylamino)but-2-en-1-one] | ≤ 0.5 | 0.5 to 5 |  | 0.5 to 5 | 5 to 50 | ≤ 0.5 | 5 to 50 |
